Data as given in patent publication US10828315B2 (Madrigal Pharmaceuticals, Inc., priority 2013, dated 2020).
pIC50: −log10 of the molar value.

Tested on: HER2
Assay: HER2 degradation assay with BT-474 cell line (Example 12, FACS)
Type: cell-based, human
From the text: HER2 has emerged as a key target for anticancer drugs due to its intrinsic involvement in the phosphatidylinositol-3-kinase-Akt/protein kinase B (PI3K-Akt) and the mitogen-activated protein kinase (MAPK) pathways, both of which suppress apoptosis and promote tumor cell survival, gene transcription, angiogenesis, cellular proliferation, migration, mitosis, and differentiation. The degradation of HER2 is a measure of efficacy of anticancer therapeutics that target Hsp90. Accordingly, the SDC-TRAP molecules of the invention that comprise a binding moiety that binds Hsp90 were tested in the following HER2 degradation assay.
BT-474 cells (human breast cancer cell line ATCC HTB-20) were obtained from ATCC and seeded into 12-well tissue culture plates at 0.2×10^6/1.8 mL/well. […] Each test compound was titrated in 4-fold dilutions from 5 μM to 78 nM with DMSO and 200 μL of the titration was added to each well of the cell plate. The DMSO final concentration was 0.2%. Cells were incubated overnight at 37° C. in 5% CO2.
Media was decanted from the plate, cells were washed 1× in PBS. 400 μL trypsin (EDTA) per well was added, and the cells were incubated for 2 to 3 minutes. Cells were collected into FACS tubes containing 1 ml culture medium to neutralize the trypsin and were centrifuged for 5 minutes at 1200 rpm. Supernatant was decanted and the cells were resuspended in 5 μL FITC (anti HER2/nu)/200 μL staining buffer (1×PBS+1% FBS+0.05% Sodium Azide)/tube. Controls were 5 μL IgG isotype control and staining buffer only. Tubes were incubated for 30 minutes in the dark at room temperature. 1 mL staining buffer was added to each tube and the tubes were centrifuged for 6 minutes at 1200 rpm. The supernatant was decanted and 300 μL staining buffer was added to each tube, which was store at 4° C. fpr FACS (cytometer) analysis. The cytometer readout was normalized and the potency of each compound is evaluated with IC50 calculated with XLfit™ software.

Compound	pIC50
CCc1c2c(nc3ccc(OC(=O)N4CCC(CCc5ccc(-n6c(O)nnc6-c6cc(C(C)C)c(O)cc6O)cc5)CC4)cc13)-c1cc3c(c(=O)n1C2)COC(=O)[C@]3(O)CC [SDC-TRAP-0086, (S)-4,11-diethyl-4-hydroxy-3,14-dioxo-3,4,12,14-tetrahydro-1H-pyrano[3′,4′:6,7]indolizino[1,2-b]quinolin-9-yl 4-(4-(3-(2,4-dihydroxy-5-isopropylphenyl)-5-hydroxy-4H-1,2,4-triazol-4-yl)phenethyl)piperidine-1-carboxylate]	< 5.30
CCNC(=O)c1nnc(-c2cc(C(C)C)c(O)cc2O)n1-c1ccc(C(=O)N2CCN(c3ccc(OC(=O)Nc4cccc5c4CN(C4CCC(=O)NC4=O)C5=O)c(OC)c3)CC2)cc1 (centres unmarked) [SDC-TRAP-0173, 4-(4-(4-(3-(2,4-dihydroxy-5-isopropylphenyl)-5-(ethylcarbamoyl)-4H-1,2,4-triazol-4-yl)benzoyl)piperazin-1-yl)-2-methoxyphenyl (2-(2,6-dioxopiperidin-3-yl)-1-oxoisoindolin-4-yl)carbamate]	6.49
CCc1c2c(nc3ccc(O)cc13)-c1cc3c(c(=O)n1C2)COC(=O)C3(CC)OC(=O)N1CCN(c2ccc(-n3c(O)nnc3-c3cc(C(C)C)c(O)cc3O)cc2)CC1 (centres unmarked) [SDC-TRAP-0081, 4,11-diethyl-9-hydroxy-3,14-dioxo-3,4,12,14-tetrahydro-1H-pyrano[3′,4′:6,7]indolizino[1,2-b]quinolin-4-yl-4-(4-(3-(2,4-dihydroxy-5-isopropylphenyl)-5-hydroxy-4H-1,2,4-triazol-4-yl)phenyl)piperazine-1-carboxylate]	6.21
CCc1c2c(nc3ccc(O)cc13)-c1cc3c(c(=O)n1C2)COC(=O)C3(CC)OC(=O)C1CCN(C(=O)CN2CCN(c3ccc(-n4c(O)nnc4-c4cc(C(C)C)c(O)cc4O)cc3)CC2)CC1 (centres unmarked) [SDC-TRAP-0111, 4,11-Diethyl-9-hydroxy-3,14-dioxo-3,4,12,14-tetrahydro-1H-pyrano[3′,4′:6,7]indolizino[1,2-b]quinolin-4-yl 1-(2-(4-(4-(3-(2,4-dihydroxy-5-isopropylphenyl)-5-hydroxy-4H-1,2,4-triazol-4-yl)phenyl)piperazin-1-yl)acetyl)piperidine-4-carboxylate]	< 5.30
CCc1c2c(nc3ccc(O)cc13)-c1cc3c(c(=O)n1C2)COC(=O)C3(CC)OC(=O)CCC(=O)NCCn1ccc2cc(-n3c(O)nnc3-c3cc(C(C)C)c(O)cc3O)ccc21 (centres unmarked) [SDC-TRAP-0026]	5.75
CCc1c2c(nc3ccc(O)cc13)-c1cc3c(c(=O)n1C2)COC(=O)[C@@]3(CC)OC(=O)N1CCN(c2ccc(-n3c(O)nnc3-c3cc(C(C)C)c(O)cc3O)cn2)CC1 [SDC-TRAP-0091, (S)-4,11-diethyl-9-hydroxy-3,14-dioxo-3,4,12,14-tetrahydro-1H-pyrano[3′,4′:6,7]indolizino[1,2-b]quinolin-4-yl 4-(5-(3-(2,4-dihydroxy-5-isopropylphenyl)-5-hydroxy-4H-1,2,4-triazol-4-yl)pyridin-2-yl)piperazine-1-carboxylate]	< 5.30
CCc1c2c(nc3ccc(O)cc13)-c1cc3c(c(=O)n1C2)COC(=O)C3(CC)OC(=O)N1CCN(Cc2ccc(-n3c(O)nnc3-c3cc(C(C)C)c(O)cc3O)cc2F)CC1 (centres unmarked) [SDC-TRAP-0079, 4,11-diethyl-9-hydroxy-3,14-dioxo-3,4,12,14-tetrahydro-1H-pyrano[3′,4′:6,7]indolizino[1,2-b]quinolin-4-yl 4-(4-(3-(2,4-dihydroxy-5-isopropylphenyl)-5-hydroxy-4H-1,2,4-triazol-4-yl)-2-fluorobenzyl)piperazine-1-carboxylate]	5.84
CCNC(=O)c1nnc(-c2cc(C(C)C)c(O)cc2O)n1-c1ccc(C(=O)N2CCN(c3ccc(OC(=O)Nc4cccc5c4CN(C4CCC(=O)NC4=O)C5=O)c(C)c3)CC2)cc1 (centres unmarked) [SDC-TRAP-0176, 4-(4-(4-(3-(2,4-dihydroxy-5-isopropylphenyl)-5-(ethylcarbamoyl)-4H-1,2,4-triazol-4-yl)benzoyl)piperazin-1-yl)-2-methylphenyl (2-(2,6-dioxopiperidin-3-yl)-1-oxoisoindolin-4-yl)carbamate]	6.75
CCc1c2c(nc3ccc(OC(=O)N(C)CCNC(=O)c4nnc(-c5cc(C(C)C)c(O)cc5O)n4-c4cccnc4)cc13)-c1cc3c(c(=O)n1C2)COC(=O)C3(O)CC (centres unmarked) [SDC-TRAP-0112, 4,11-Diethyl-4-hydroxy-3,14-dioxo-3,4,12,14-tetrahydro-1H-pyrano[3′,4′:6,7]indolizino[1,2-b]quinolin-9-yl (2-(5-(2,4-dihydroxy-5-isopropylphenyl)-4-(pyridin-3-yl)-4H-1,2,4-triazole-3-carboxamido)ethyl)(methyl)carbamate]	< 5.30
CCc1c2c(nc3ccc(OC(=O)N4CCC(c5nc6cc(-n7c(O)nnc7-c7cc(C(C)C)c(O)cc7O)ccc6n5C)CC4)cc13)-c1cc3c(c(=O)n1C2)COC(=O)C3(O)CC (centres unmarked) [SDC-TRAP-0095, 4,11-diethyl-4-hydroxy-3,14-dioxo-3,4,12,14-tetrahydro-1H-pyrano[3′,4′:6,7]indolizino[1,2-b]quinolin-9-yl 4-(5-(3-(2,4-dihydroxy-5-isopropylphenyl)-5-hydroxy-4H-1,2,4-triazol-4-yl)-1-methyl-1H-benzo[d]imidazol-2-yl)piperidine-1-carboxylate]	< 5.30
Cc1cc(C(=O)N2CCN(Cc3ccc(-n4c(O)nnc4-c4cc(C(C)C)c(O)cc4O)cc3F)CC2)cc(C)c1OC(=O)Nc1cccc2c1CN(C1CCC(=O)NC1=O)C2=O (centres unmarked) [SDC-TRAP-0168, 4-(4-(4-(3-(2,4-dihydroxy-5-isopropylphenyl)-5-hydroxy-4H-1,2,4-triazol-4-yl)-2-fluorobenzyl)piperazine-1-carbonyl)-2,6-dimethylphenyl (2-(2,6-dioxopiperidin-3-yl)-1-oxoisoindolin-4-yl)carbamate]	6.56
CCc1c2c(nc3ccc(OC(C)=O)cc13)-c1cc3c(c(=O)n1C2)COC(=O)C3(CC)OC(=O)N(C)CCCCN1CCN(Cc2ccc(-n3c(O)nnc3-c3cc(C(C)C)c(O)cc3O)cc2)CC1 (centres unmarked) [SDC-TRAP-0181, 4-(((4-(4-(4-(3-(2,4-Dihydroxy-5-isopropylphenyl)-5-hydroxy-4H-1,2,4-triazol-4-yl)benzyl)piperazin-1-yl)butyl)(methyl)carbamoyl)oxy)-4,11-diethyl-3,14-dioxo-3,4,12,14-tetrahydro-1H-pyrano[3′,4′:6,7]indolizino[1,2-b]quinolin-9-yl acetate]	6.79
CCc1c2c(nc3ccc(OC(=O)N4CCN(Cc5cc6cc(-n7c(O)nnc7-c7cc(C(C)C)c(O)cc7O)ccc6n5C)CC4)cc13)-c1cc3c(c(=O)n1C2)COC(=O)C3(O)CC (centres unmarked) [SDC-TRAP-0073, 4,11-diethyl-4-hydroxy-3,14-dioxo-3,4,12,14-tetrahydro-1H-pyrano[3′,4′:6,7]indolizino[1,2-b]quinolin-9-yl 4-((5-(3-(2,4-dihydroxy-5-isopropylphenyl)-5-hydroxy-4H-1,2,4-triazol-4-yl)-1-methyl-1H-indol-2-yl)methyl)piperazine-1-carboxylate]	6.32
CCc1c2c(nc3ccc(O)cc13)-c1cc3c(c(=O)n1C2)COC(=O)C3(CC)OC(=O)N1CCN(Cc2cc3cc(-n4c(O)nnc4-c4cc(C(C)C)c(O)cc4O)ccc3n2C)CC1 (centres unmarked) [SDC-TRAP-0075, 4,11-diethyl-9-hydroxy-3,14-dioxo-3,4,12,14-tetrahydro-1H-pyrano[3′,4′:6,7]indolizino[1,2-b]quinolin-4-yl 4-((5-(3-(2,4-dihydroxy-5-isopropylphenyl)-5-hydroxy-4H-1,2,4-triazol-4-yl)-1-methyl-1H-indol-2-yl)methyl)piperazine-1-carboxylate]	6.02
